The results in this text go back to ChEMBL document CHEMBL1121858, “Synthesis and antimalarial activity of 8-[(1-alkyl-4-aminobutyl)amino]-6-methoxy-4-methylquinolines” (1981).

Values joined by “and” are separate entries in the source; they are usually repeats but may differ in a detail not shown here. Equal values may be shown once.

Holding throughout (type): functional
In experiment [1] the test system is Mus musculus. Put plainly: Mean survival time of Plasmodium berghei infected mice (Mus musculus) after administration of single dose of 40 mg/kg intravenously. The following applies: route intravenous.
Experiment [2] deals with Mus musculus. The experiment can be described thus: Mean survival time of Plasmodium berghei infected mice (Mus musculus) after administration of single dose of 20 mg/kg intravenously. As to conditions: route intravenous.
Experiment [3] deals with Mus musculus. The experiment can be described thus: Mean survival time of Plasmodium berghei infected mice (Mus musculus) after administration of single dose of 640 mg/kg intravenously. As to conditions: route intravenous.
Experiment [4] deals with Mus musculus. Put plainly: Mean survival time of Plasmodium berghei infected mice (Mus musculus) after administration of single dose of 160 mg/kg intravenously. As to conditions: route intravenous.
Experiment [5] relates to Mus musculus. Put plainly: Mean survival time of Plasmodium berghei infected mice (Mus musculus) after administration of single dose of […] intravenously.
In experiment [6] the test system is Mus musculus. The experiment can be described thus: Mean survival time of Plasmodium berghei infected mice (Mus musculus) after administration of single dose of 80 mg/kg intravenously. The following applies: route intravenous.

As for `CCC(CCCN)Nc1cc(OC)cc2c(C)ccnc12.O=P(O)(O)O` (centres undefined), the MST stood at 7.9 days in experiment [1]; 7.3 days in experiment [2]; 5 days in experiment [3]; 11.5 days in experiment [4]; 5 days in experiment [5]; 9.7 days in experiment [6].

Regarding `COc1cc(NC(C)CCCN)c2ncccc2c1.O=P(O)(O)O.O=P(O)(O)O` (centres undefined) [PRIMAQUINE PHOSPHATE], the MST is 4.2 days and 5 days in experiment [1] (40 mg/kg); 2.2 days and 4 days in experiment [2] (20 mg/kg); 5 days in experiment [3]; 7 days and 10.8 days in experiment [4] (160 mg/kg); 5 days in experiment [5]; 6.4 days and 9.4 days in experiment [6] (80 mg/kg).

For the compound `COc1cc(NC(CCCN)C(C)C)c2nccc(C)c2c1.O=P(O)(O)O` (centres undefined), the MST amounted to 5.2 days in experiment [1]; 3.4 days in experiment [2]; 1 days in experiment [3]; 7.8 days in experiment [4]; 7.2 days in experiment [5]; 6.8 days in experiment [6].

Turning to `CCCC(CCCN)Nc1cc(OC)cc2c(C)ccnc12.O=P(O)(O)O` (centres undefined), the MST in experiment [1] turned out to be 4.1 days; in experiment [2] it was 3.1 days; in experiment [3] it was 12.3 days; in experiment [4], 6.3 days; in experiment [5], 9.1 days; in experiment [6], 5.7 days.
